Test systems include T-47D breast; A498 renal; SW-620 colon; NCI-H522 lung; IGROV1 ovarian; HOP-62 NSCLC; COLO 205 colon; NCI-H226 lung; SNB-19 CNS; HCT-15 colon.
Assay in all cases: inhibition of tumour cell growth, NCI panel, 48 h

From PubChem BioAssay (NCI) come the findings set out here.

The structures appear in SMILES notation.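 Results reflect a 48-hour exposure of cells in 96-well plates to compound at five concentrations. The concentration for 50% growth inhibition is given as GI50. The concentration for full growth arrest is given as TGI.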

Turning to `CCCCCCCCCCCCCOC(=O)c1c(C)[nH]c(/C=C2\N=C(c3ccc[nH]3)C=C2OC)c1C`, the GI50 with T-47D breast is 0.0583 µM; in the test on A498 renal it was 0.481 µM; in the test on SW-620 colon it was 0.0204 µM; in the test on NCI-H522 lung, 0.215 µM; with IGROV1 ovarian it was 0.122 µM; in the test on HOP-62 NSCLC, 0.801 µM. The GI50 in the test with COLO 205 colon is 0.0583 µM; with NCI-H226 lung, 1.02 µM; in the test on SNB-19 CNS, 5.37 µM; with HCT-15 colon, 0.0262 µM. In addition, the TGI was above 43.4 µM in the test on T-47D breast; 10.8 µM in the test with A498 renal; above 37.1 µM in the test on SW-620 colon; above 64.3 µM with NCI-H522 lung; 30.1 µM with IGROV1 ovarian; 14.2 µM in the test with HOP-62 NSCLC. In addition, the TGI in the test on COLO 205 colon was above 100 µM; in the test with NCI-H226 lung, above 57.4 µM; in the test on SNB-19 CNS it was above 87.6 µM.

As for `COc1ccc(-c2coc3ncnc(N)c23)cc1`, the GI50 with T-47D breast was above 25 µM; with A498 renal it was 13.7 µM; in the test on SW-620 colon, above 25 µM; in the test with NCI-H522 lung it was above 25 µM; in the test on IGROV1 ovarian, above 25 µM; in the test on HOP-62 NSCLC, above 25 µM. The GI50 in the test on COLO 205 colon, with NCI-H226 lung, with SNB-19 CNS and in the test with HCT-15 colon was above 25 µM each time. Further, the TGI in the test on T-47D breast, in the test with A498 renal, in the test with SW-620 colon, in the test on NCI-H522 lung, in the test with IGROV1 ovarian and with HOP-62 NSCLC was above 25 µM throughout. Further, the TGI in the test with COLO 205 colon, in the test with NCI-H226 lung, in the test with SNB-19 CNS and in the test on HCT-15 colon was above 25 µM throughout.

Consider `Nc1ncc(-c2cnn(C3CCNCC3)c2)cc1-c1nc2ccccc2o1`, for which the GI50 with T-47D breast was 1.67 µM; with A498 renal it was 1.53 µM; in the test on SW-620 colon, 1.09 µM; in the test on NCI-H522 lung it was 0.757 µM; in the test with IGROV1 ovarian, 0.211 µM; with HOP-62 NSCLC it was 0.915 µM. Also, the GI50 with COLO 205 colon was 1.55 µM; with NCI-H226 lung, 1.97 µM; with SNB-19 CNS, 3.25 µM; with HCT-15 colon, 0.508 µM. For the same molecule, the TGI is 4.88 µM with T-47D breast; 3.46 µM in the test on A498 renal; 2.38 µM in the test on SW-620 colon; 2.4 µM in the test on NCI-H522 lung; 0.891 µM in the test with IGROV1 ovarian; 5.19 µM in the test with HOP-62 NSCLC. The TGI came to 3.05 µM with COLO 205 colon, 6.59 µM in the test with NCI-H226 lung, 10.6 µM with SNB-19 CNS and 2.5 µM in the test on HCT-15 colon.

Regarding `COc1ccc(C(=O)/C=C/c2cc3ccccc3[nH]c2=O)cc1`, the GI50 is 18.8 µM in the test with T-47D breast; above 38.4 µM with A498 renal; 18.4 µM with SW-620 colon; 13.5 µM with NCI-H522 lung; 28.6 µM with IGROV1 ovarian; 20.5 µM with HOP-62 NSCLC. In addition, the GI50 was 18.5 µM in the test on COLO 205 colon, 22.1 µM in the test on NCI-H226 lung, 23.2 µM in the test on SNB-19 CNS and 20.3 µM with HCT-15 colon. In addition, the TGI is above 100 µM in the test with T-47D breast; above 100 µM in the test on A498 renal; 33.2 µM with SW-620 colon; 24.5 µM in the test with NCI-H522 lung; 97.6 µM in the test with IGROV1 ovarian; 42.6 µM with HOP-62 NSCLC. Besides, the TGI with COLO 205 colon was 35.3 µM; in the test with NCI-H226 lung, above 100 µM; in the test with SNB-19 CNS, above 57.5 µM; in the test with HCT-15 colon, above 59.6 µM.

Regarding `Oc1c(Br)cc(Br)cc1CN(Cc1cc(Br)cc(Br)c1O)C1CCCCC1`, the TGI is above 100 µM in the test with T-47D breast; 71.1 µM in the test on A498 renal; above 100 µM in the test on SW-620 colon; 36.5 µM in the test with NCI-H522 lung; above 100 µM with IGROV1 ovarian; 97.5 µM in the test with HOP-62 NSCLC. Also, the TGI in the test with COLO 205 colon was 29.2 µM; in the test with NCI-H226 lung it was above 100 µM; in the test with SNB-19 CNS, above 100 µM; in the test with HCT-15 colon, above 100 µM.

Turning to `COc1cc2c(c(OC)c1OC)-c1ccc(OC)c(=O)cc1[C@@H](NC(=O)CCl)CC2`, the GI50 in the test on T-47D breast is 13.2 µM; with A498 renal it was below 0.01 µM; in the test with SW-620 colon, below 0.01 µM; in the test with NCI-H522 lung, below 0.01 µM; in the test with IGROV1 ovarian, below 0.01 µM; in the test with HOP-62 NSCLC, below 0.01 µM. The GI50 in the test on COLO 205 colon was below 0.01 µM; with NCI-H226 lung, 0.0357 µM; with SNB-19 CNS, below 0.01 µM; in the test on HCT-15 colon, 0.0308 µM. Further, the TGI with T-47D breast was above 59 µM; with A498 renal, 0.164 µM; with SW-620 colon, 12 µM; in the test on NCI-H522 lung, below 0.01 µM; in the test on IGROV1 ovarian it was 21.9 µM; in the test with HOP-62 NSCLC it was 10.2 µM. Also, the TGI in the test on COLO 205 colon is below 0.01 µM; in the test with NCI-H226 lung, 10.9 µM; in the test with SNB-19 CNS, 28.7 µM; with HCT-15 colon, above 100 µM.

With `CCN(Cc1ccc(F)cc1)c1ccc(CO)c(Cl)c1`, the GI50 in the test with T-47D breast was 0.0821 µM; in the test on A498 renal, 0.019 µM; in the test with SW-620 colon it was 0.838 µM; with NCI-H522 lung it was 14.5 µM; with IGROV1 ovarian, 0.0776 µM; in the test with HOP-62 NSCLC it was 0.576 µM. Moreover, the GI50 in the test on COLO 205 colon was 1.35 µM; in the test on NCI-H226 lung, 0.0306 µM; with SNB-19 CNS it was 19.6 µM; in the test on HCT-15 colon it was 5.15 µM. In addition, the TGI was 0.472 µM with T-47D breast; 0.0936 µM with A498 renal; above 41 µM with SW-620 colon; 40.1 µM in the test on NCI-H522 lung; 0.605 µM in the test with IGROV1 ovarian; 25.1 µM with HOP-62 NSCLC. Further, the TGI in the test with COLO 205 colon is 3.77 µM; in the test on NCI-H226 lung it was 0.116 µM; in the test on SNB-19 CNS, above 59.8 µM; in the test on HCT-15 colon it was 50.7 µM.
